One experiment deals with Aβ42 (Homo sapiens, UniProt P05067). In words: Thioflavin T fluorescence test, inhibition of Aβ aggregation. In kind it is biochemical. The following applies: 10 μM Aβ 42, Edaravone 0-100 μM, 37° C., two days.
The subject of experiment [1] is APPswe/PS1DE9 (AD) transgenic mice. Nature of the experiment: Morris water maze. The following applies: prophylactic and therapeutic test, vs control group. In kind it is in vivo. The procedure:
APPswe/PS1DE9 (AD) transgenic mice were purchased from Jackson Laboratory, USA (No. 005864), raised in the SPF grade animal house of The Third Affiliated Hospital of The Third Military Medical University. All the processes and correlated experiments applied to the mice were approved and filed with the Animal Ethics Committee of the Third Military Medical University. […] Alternatively, the daily dose for the prophylactic group may be 6.4 mg/kg, and the daily dose for the treatment group may be 12.8 mg/kg. Administration from 3-month old to 9-month old is the prophylactic test, and administration from 9-month old to 12-month old is the therapeutic test After reaching a stated time, the mice in each group received behavioral tests according to the method in the follows. Three mice in each group were taken for Golgi staining. […] The entire process was recorded by video, and analyzed with an image analysis software (ANY-maze, Stoelting). In the platform test, the escape path length and escape latency were measured and calculated. In the probe test, the time in each quadrant and the time across platform were measured. […] In the open field test, the mouse was put in the center of an open field for 3 min, and its path was recorded by a tracking system (Limelight, ActiMetrics). At the same time, the numbers of rearing, grooming, defecation and urination of the mouse were recorded.

For experiment [2], the system named is Aβ deposition in the blood vessels of the brain. In words: Cerebrovascular amyloidosis detection (double immunofluorescence 1a4/6E10). It counts as in vivo. To be noted: AD mice. As to the method: (§1) APPswe/PS1DE9 (AD) transgenic mice were purchased from Jackson Laboratory, USA (No. 005864), raised in the SPF grade animal house of The Third Affiliated Hospital of The Third Military Medical University. All the processes and correlated experiments applied to the mice were approved and filed with the Animal Ethics Committee of the Third Military Medical University. […] Alternatively, the daily dose for the prophylactic group may be 6.4 mg/kg, and the daily dose for the treatment group may be 12.8 mg/kg. Administration from 3-month old to 9-month old is the prophylactic test, and administration from 9-month old to 12-month old is the therapeutic test After reaching a stated time, the mice in each group received behavioral tests according to the method in the follows. Three mice in each group were taken for Golgi staining. The remaining mice were overly anaesthetized to receive brain anatomy. One side of the cerebral hemisphere was frozen and then for a biochemical analysis, and the other side of the cerebral hemisphere was fixed with 4% paraform for a histological analysis.
A new assessment method was applied in the present research to assess the severity of the cerebrovascular amyloidosis. The blood vessels in the brain were double immunofluorescence stained with α-smooth muscle action antibody (1a4) and Aβ antibody (6E10), observed under eonfocal laser microscopy (Radiance 2000MP, Bio-Rad), and the images of the blood vessels were recorded. The severity of the CAA of each blood vessel was scored based on the following four-level scale: level 0: no Aβ deposition; level 1: little Aβ deposition, Aβ deposition occupies less than one third of the perimeter of the blood vessel; level 2: moderate Aβ deposition, Aβ deposition occupies more than one third but less than two thirds of the perimeter of the blood vessel; level 3: severe deposition, Aβ deposition occupies more than […] of the perimeter of the blood vessel.

The next experiment deals with Aβ, CTFβ. Nature of the experiment: Western blot of Aβ and CTFβ in brain. To be noted: AD mice. It counts as in vivo. The procedure: (§2) APPswe/PS1DE9 (AD) transgenic mice were purchased from Jackson Laboratory, USA (No. 005864), raised in the SPF grade animal house of The Third Affiliated Hospital of The Third Military Medical University. All the processes and correlated experiments applied to the mice were approved and filed with the Animal Ethics Committee of the Third Military Medical University. […] Alternatively, the daily dose for the prophylactic group may be 6.4 mg/kg, and the daily dose for the treatment group may be 12.8 mg/kg. […]
(§3) The enzymes related with Aβ formation and degradation their molecule levels, the levels of hyperphosphprylated Tau proteins, and the levels of synaptic plasticity correlated proteins were all detected with Western blot. […] The blotting was detected with the following antibodies: APP C terminal antibody (171610, Millipore), BACE1 antibody (Millipore), Aβ antibody (6E10, Abcam), Nepriiysin antibody (Millipore), RAGE antibody (Millipore), LRP antibody (5A6, Calbiochem), IDE antibody (epitomics), phosphorylated Tau protein antibody, including pS396 (Signalway), pT231 (Signalway), pS199 (epitomics), pS262 (Abcam), SNAP25 antibody (Millipore), Synaptophysin antibody (Millipore), Synapsin I antibody (Millipore), VAMP1 antibody (Millipore), PSD95 antibody (Millipore), F-actin antibody (Actin) (Sigma-Aldrich). […]
A general note: A western blot detects proteins with antibodies after separation by electrophoresis.

Experiment [3] relates to neural inflammatory reactions. In words: Neural inflammatory reaction in brain (ELISA of IL-6, IL-1β, INF-γ, TNF-β). In kind it is in vivo. The following applies: AD mice. As to the method:
as §1
After homogenating the frozen brain tissues, extraction was conducted with TBS, SDS and formic acid successively. The TBS, SDS and formic acid extracts represent soluble Aβ, loosen senile plaques and compact senile plaques, respectively. […]

For experiment [4], the system named is synapse associated proteins. Nature of the experiment: Western blot of synapse associated proteins. In kind it is in vivo. The following applies: AD mice vs control group. The procedure:
as §2, §3

Another experiment deals with neurons. Nature of the experiment: Neuron apoptosis in the brain of AD mice. In kind it is in vivo. The procedure:
as §1

For experiment [5], the system named is cerebral ischemia-reperfusion injury. To be noted: cited from earlier work.
Experiment [6] relates to ischemia-reperfused elderly rats. To be noted: cited from earlier work.

Sequence of Aβ42 (P05067 672-713 limits assumed): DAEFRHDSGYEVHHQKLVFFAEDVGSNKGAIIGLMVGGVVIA

Take `CC1=NN(c2ccccc2)C(=O)C1` [Edaravone, 3-methyl-1-phenyl-2-pyrazolin-5-one]: the “inhibition of Aβ aggregation (thioflavin T)” value against Aβ42 is given as “effectively inhibit Aβ aggregation in a dose-dependent manner”. Also, in experiment [1], the “Morris water maze escape time” value is reported as “reduction of escape time” and the “Morris water maze times across platform” value is given as “increase in times across platform”. In [2], the “proportions of the blood vessels at level 0 and level 1 CAA” value is given as “significantly increased”; the “proportions of the blood vessels at level 2 and level 3 CAA” value is “significantly reduced”. The “Aβ deposition in the blood vessels of the brain” value in [2] (Edaravone treatment group) is recorded as “significantly reduced”. Also, in the experiment on Aβ, CTFβ, the “formation of Aβ in the brain (Western blot)” value was “reduce the formation of Aβ in the brain” and the “formation of CTFβ (Western blot)” value is “decrease the formation of CTFβ”. In [3] (p.o.), the “neural inflammatory reaction level in the brain” value is recorded as “significantly reduced, too”. Also, in [3] (prophylactic and therapeutic test), the “neural inflammatory reaction in the brain” value is reported as “all reduced significantly”. The “expressions of the synapse associated proteins” value in experiment [4] was “much higher than in the control group”. Also, the “neuron apoptosis in the brain” value in the experiment on neurons is “significantly reduce the neuron apoptosis”. Further, the “cerebral ischemia-reperfusion injury area” value in experiment [5] (previous studies) is reported as “reduce cerebral ischemia-reperfusion injury area”. Also, the “gene expression of the Fas/FasL signaling pathway” value in [5] (transient focal ischemia in rats) was “suppress the gene expression of the Fas/FasL signaling pathway”. Also, in experiment [6], the JNK-c-Jun pathway result is “suppress the JNK-c-Jun pathway”, the glutathione peroxidase activity entry is “reduce the glutathione peroxidase activity” and the neuronal apoptosis result was “decrease the neuronal apoptosis”.
